{"source": "patent US11186548B2", "about": "(priority 2017, dated 2021)", "key": {"[1]": {"assay": "in vivo", "conditions": "male, guinea pig, iv"}, "[2]": {"target": "human AChE (Homo sapiens, UniProt P22303)", "sequence (P22303-2 with tags, fused parts or gaps limits assumed)": "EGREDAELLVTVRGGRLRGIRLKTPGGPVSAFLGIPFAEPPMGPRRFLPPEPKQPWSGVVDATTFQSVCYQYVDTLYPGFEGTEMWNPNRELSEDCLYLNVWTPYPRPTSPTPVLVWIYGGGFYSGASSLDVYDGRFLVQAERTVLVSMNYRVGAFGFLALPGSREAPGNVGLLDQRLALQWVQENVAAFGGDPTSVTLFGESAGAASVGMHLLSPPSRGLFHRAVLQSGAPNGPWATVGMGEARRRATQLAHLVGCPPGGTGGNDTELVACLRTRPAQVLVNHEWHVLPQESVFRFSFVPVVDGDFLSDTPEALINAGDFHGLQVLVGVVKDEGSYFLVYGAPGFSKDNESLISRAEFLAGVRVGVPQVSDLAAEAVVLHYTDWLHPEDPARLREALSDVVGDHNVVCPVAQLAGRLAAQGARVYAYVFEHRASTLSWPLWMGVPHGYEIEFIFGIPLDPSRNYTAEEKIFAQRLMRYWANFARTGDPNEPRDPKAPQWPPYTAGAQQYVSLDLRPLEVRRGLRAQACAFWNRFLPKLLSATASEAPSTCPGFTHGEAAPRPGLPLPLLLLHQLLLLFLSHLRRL", "format": "biochemical"}, "[3]": {"assay": "Parallel Artificial Membrane Permeability Assay (PAMPA)", "conditions": "about 100 μM, five hours, 25° C."}, "[4]": {"assay": "Microsomal stability assay", "conditions": "microsomes"}, "[5]": {"assay": "in vivo", "conditions": "male, guinea pig"}, "[6]": {"target": "CYP3A4 (Homo sapiens, UniProt P08684)", "sequence (P08684 whole entry)": "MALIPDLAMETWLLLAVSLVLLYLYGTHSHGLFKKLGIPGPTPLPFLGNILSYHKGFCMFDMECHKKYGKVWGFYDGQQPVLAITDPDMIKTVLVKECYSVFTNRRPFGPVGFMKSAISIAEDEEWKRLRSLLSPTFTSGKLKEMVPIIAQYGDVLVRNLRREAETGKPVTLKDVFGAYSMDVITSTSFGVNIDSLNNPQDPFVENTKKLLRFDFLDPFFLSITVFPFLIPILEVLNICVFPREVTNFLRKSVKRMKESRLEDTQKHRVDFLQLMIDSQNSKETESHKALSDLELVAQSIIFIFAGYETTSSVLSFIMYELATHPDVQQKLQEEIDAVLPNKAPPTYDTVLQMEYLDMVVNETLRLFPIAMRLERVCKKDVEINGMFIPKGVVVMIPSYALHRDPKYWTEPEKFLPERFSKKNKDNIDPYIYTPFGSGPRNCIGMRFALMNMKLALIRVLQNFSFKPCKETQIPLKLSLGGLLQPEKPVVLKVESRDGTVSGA", "assay": "biochemical"}, "[7]": {"target": "CYP2C19 (Homo sapiens, UniProt P33261)", "sequence (P33261 whole entry)": "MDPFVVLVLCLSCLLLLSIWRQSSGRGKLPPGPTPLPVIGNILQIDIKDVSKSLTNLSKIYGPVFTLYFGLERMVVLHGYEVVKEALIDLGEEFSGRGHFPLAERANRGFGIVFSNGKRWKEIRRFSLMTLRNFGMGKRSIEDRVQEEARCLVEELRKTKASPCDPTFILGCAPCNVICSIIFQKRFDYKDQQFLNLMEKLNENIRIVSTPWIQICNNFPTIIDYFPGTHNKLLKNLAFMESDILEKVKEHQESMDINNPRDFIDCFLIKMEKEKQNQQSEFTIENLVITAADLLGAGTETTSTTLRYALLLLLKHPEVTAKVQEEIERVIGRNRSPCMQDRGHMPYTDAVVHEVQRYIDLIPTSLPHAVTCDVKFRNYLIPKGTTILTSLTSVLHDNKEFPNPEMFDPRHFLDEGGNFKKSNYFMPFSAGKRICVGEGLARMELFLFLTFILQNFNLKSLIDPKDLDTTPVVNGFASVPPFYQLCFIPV", "assay": "Cytochrome P450 inhibition with fluorescent probe substrate"}, "[8]": {"target": "MDR1 (P-gp) (Homo sapiens, UniProt P08183)", "sequence (P08183 whole entry)": "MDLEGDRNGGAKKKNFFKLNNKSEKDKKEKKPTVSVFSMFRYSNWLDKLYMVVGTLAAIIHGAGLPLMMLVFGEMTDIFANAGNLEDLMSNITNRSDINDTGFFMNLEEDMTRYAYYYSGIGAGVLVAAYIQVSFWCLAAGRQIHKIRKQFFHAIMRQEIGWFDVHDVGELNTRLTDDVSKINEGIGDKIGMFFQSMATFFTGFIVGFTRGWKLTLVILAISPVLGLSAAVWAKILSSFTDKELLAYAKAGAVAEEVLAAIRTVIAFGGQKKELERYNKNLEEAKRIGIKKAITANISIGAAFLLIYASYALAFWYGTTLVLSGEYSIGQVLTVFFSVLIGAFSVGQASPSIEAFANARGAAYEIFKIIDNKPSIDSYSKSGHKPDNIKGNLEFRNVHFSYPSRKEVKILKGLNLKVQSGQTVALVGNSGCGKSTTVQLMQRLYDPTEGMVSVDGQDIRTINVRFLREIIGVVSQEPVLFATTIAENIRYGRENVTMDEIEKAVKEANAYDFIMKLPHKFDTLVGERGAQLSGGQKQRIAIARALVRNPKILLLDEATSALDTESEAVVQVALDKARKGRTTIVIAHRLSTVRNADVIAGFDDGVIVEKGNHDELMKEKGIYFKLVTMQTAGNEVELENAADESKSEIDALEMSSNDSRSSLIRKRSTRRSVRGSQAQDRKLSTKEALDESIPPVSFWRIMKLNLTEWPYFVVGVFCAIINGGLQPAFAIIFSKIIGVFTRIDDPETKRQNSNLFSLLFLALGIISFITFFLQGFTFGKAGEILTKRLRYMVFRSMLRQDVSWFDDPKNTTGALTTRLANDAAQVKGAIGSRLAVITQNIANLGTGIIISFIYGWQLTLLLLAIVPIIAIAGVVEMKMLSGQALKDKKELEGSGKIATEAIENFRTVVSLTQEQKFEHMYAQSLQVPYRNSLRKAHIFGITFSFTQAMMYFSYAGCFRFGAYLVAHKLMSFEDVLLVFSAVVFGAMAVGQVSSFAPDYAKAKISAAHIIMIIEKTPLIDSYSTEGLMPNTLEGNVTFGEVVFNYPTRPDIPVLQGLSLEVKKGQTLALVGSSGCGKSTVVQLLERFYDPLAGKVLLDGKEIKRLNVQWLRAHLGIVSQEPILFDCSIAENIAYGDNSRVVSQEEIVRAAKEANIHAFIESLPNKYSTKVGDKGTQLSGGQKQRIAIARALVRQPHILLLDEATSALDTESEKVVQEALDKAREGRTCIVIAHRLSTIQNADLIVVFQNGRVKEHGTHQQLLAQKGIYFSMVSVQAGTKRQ", "assay": "MDR1-MDCK efflux assay (net flux ratio)", "conditions": "37° C., three hours"}, "[9]": {"conditions": "male, guinea pig, in vivo"}, "[10]": {"assay": "Human plasma stability assay"}, "[11]": {"conditions": "guinea pig, in vivo; for percentage of the administered dose in the brain / LogBB / brain concentration / plasma concentration: male; for LogBB / brain concentration / plasma concentration: iv"}, "[12]": {"target": "hERG channel (Homo sapiens, UniProt Q12809)", "sequence (Q12809 whole entry)": "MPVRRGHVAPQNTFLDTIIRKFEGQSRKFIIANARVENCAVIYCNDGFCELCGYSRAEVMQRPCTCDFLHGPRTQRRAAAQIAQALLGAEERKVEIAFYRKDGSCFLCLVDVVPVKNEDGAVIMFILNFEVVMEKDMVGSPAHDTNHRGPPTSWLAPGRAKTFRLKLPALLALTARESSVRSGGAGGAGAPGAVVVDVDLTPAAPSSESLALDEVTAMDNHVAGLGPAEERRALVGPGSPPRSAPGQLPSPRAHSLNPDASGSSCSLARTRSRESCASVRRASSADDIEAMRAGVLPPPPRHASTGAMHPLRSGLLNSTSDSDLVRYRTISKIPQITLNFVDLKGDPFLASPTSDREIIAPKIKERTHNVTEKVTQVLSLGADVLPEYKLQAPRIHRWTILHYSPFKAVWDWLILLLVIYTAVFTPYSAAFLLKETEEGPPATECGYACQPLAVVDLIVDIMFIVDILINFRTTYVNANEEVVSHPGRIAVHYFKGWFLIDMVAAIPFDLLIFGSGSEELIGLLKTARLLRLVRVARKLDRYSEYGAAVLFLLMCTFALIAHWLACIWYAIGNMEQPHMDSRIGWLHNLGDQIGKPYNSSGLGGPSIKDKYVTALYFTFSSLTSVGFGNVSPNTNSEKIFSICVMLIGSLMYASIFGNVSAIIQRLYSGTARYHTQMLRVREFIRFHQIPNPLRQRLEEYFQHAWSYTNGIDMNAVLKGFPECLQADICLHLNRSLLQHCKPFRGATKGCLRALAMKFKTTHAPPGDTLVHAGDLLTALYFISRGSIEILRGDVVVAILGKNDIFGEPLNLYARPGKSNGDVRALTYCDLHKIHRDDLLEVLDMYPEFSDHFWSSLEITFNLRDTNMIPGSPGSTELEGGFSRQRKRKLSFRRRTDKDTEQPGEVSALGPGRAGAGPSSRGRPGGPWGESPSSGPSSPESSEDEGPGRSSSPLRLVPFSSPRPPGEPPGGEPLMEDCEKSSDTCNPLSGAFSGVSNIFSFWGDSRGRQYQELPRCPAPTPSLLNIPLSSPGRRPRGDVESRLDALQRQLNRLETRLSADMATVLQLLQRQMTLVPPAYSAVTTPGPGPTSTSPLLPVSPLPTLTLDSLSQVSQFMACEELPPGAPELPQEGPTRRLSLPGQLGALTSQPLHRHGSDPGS", "assay": "hERG channel patch clamp assay"}}, "note": "pIC50: −log10 of the molar value. “Also recorded” adds a separate entry of the source. Like-named read-outs stand apart in the source and are kept apart here."}
{"smiles": "C[C@@H](CN1CCCc2ccccc2C1)NC(=O)/C=N/O", "note": "[LLNL-02]", "values": [{"measurement": "half-life", "setting": "[1]; 1 mg/kg, T½ dist.", "result": 23.4, "unit": "min"}, {"measurement": "half-life", "setting": "[1]; 5 mg/kg, T½ dist.", "result": 24, "unit": "min"}, {"measurement": "AUC(0-inf)", "setting": "[1]; 10 mg/kg", "result": 73400, "unit": "ng·h/mL"}, {"measurement": "AUC0-t", "setting": "[1]; 10 mg/kg, AUC0-t", "result": 28400, "unit": "ng·h/mL"}, {"measurement": "half-life", "setting": "[1]; 10 mg/kg, T½ dist.", "result": 15, "unit": "min"}, {"measurement": "half-life", "setting": "[1]; 10 mg/kg, T½ elim.", "result": 606, "unit": "min"}, {"measurement": "Vd", "setting": "[1]; 10 mg/kg, Vd (area)", "result": 6.32, "unit": "L/kg"}, {"measurement": "half-life", "setting": "[1]; 20 mg/kg, T½ dist.", "result": 23.4, "unit": "min"}, {"measurement": "Vd", "setting": "[1]; 20 mg/kg, apparent volume of distribution (Vd)", "result": "3.75 to 6.32", "unit": "L/kg"}, {"measurement": "half-life", "setting": "[1]; 20 mg/kg, mean apparent distribution half-life (t1/2α)", "result": "15 to 24", "unit": "min"}, {"measurement": "half-life", "setting": "[1]; 20 mg/kg, terminal half-life (t1/2 β)", "result": "606 to 1130", "unit": "min"}, {"measurement": "clearance", "setting": "[1]; 20 mg/kg, total clearance from plasma (CL)", "result": "2.27 to 5.19", "unit": "mL/min/kg"}, {"measurement": "fraction of AChE reactivated at 30 minutes, methylated versus des-methyl analog", "setting": "[2]", "result": "significantly lower reactivation relative to the des-methyl counterpart"}, {"measurement": "reactivation of adducted AChE relative to the 2-PAM standard of care", "setting": "[2]", "result": "approximately 40%"}, {"measurement": "PAMPA permeability", "setting": "[3]", "result": "high permeability through the BBB; also recorded: high permeability comparable to that of the highly permeable positive control compound, diazepam; also recorded: elevated permeability relative to other selected compounds; also recorded: superior permeation relative to LLNL-03"}, {"measurement": "half-life", "setting": "[4]", "result": "> 60", "unit": "min"}, {"measurement": "microsomal CLint", "setting": "[4]", "result": "< 23", "unit": "µL/min/mg"}, {"measurement": "Cmax", "setting": "[5]", "result": "1420 to 10000", "unit": "ng/g"}, {"measurement": "pIC50", "setting": "[6]", "result": "< 5.00"}, {"measurement": "pIC50", "setting": "[7]", "result": "< 5.00"}, {"measurement": "MDR1 efflux substrate status from net flux ratio", "setting": "[8]", "result": "may be a moderate efflux substrate; also recorded: moderate efflux substate"}, {"measurement": "increase in mean AUC0-t", "setting": "[9]", "result": 2.5, "unit": "fold"}, {"measurement": "AUC0-t", "setting": "[9]; iv, 10 mg/kg", "result": 28480, "unit": "ng·h/mL"}, {"measurement": "T½ elim.", "setting": "[9]; iv, 10 mg/kg", "result": 606.6, "unit": "min"}, {"measurement": "Vd (area)", "setting": "[9]; iv, 10 mg/kg", "result": 6.32268, "unit": "L/kg"}, {"measurement": "human plasma stability (percent remaining after 1 hour)", "setting": "[10]; human plasma, 1 hour at 37° C.", "result": "over 90%"}, {"measurement": "degradation in human plasma", "setting": "[10]; one hour", "result": "< 10", "unit": "%"}, {"measurement": "time of Cmax in the brain", "setting": "[11]", "result": 5, "unit": "min"}, {"measurement": "percentage of the administered dose in the brain", "setting": "[11]", "result": "0.3-0.7%"}, {"measurement": "percentage of the administered dose in the brain", "setting": "[11]; 1 mg/kg", "result": 0.3, "unit": "%"}, {"measurement": "percentage of the administered dose in the brain", "setting": "[11]; 5 mg/kg", "result": 0.3, "unit": "%"}, {"measurement": "percentage of the administered dose in the brain", "setting": "[11]; 20 mg/kg", "result": 0.7, "unit": "%"}, {"measurement": "LogBB", "setting": "[11]; 1 mg/kg", "result": "−0.879"}, {"measurement": "brain concentration", "setting": "[11]; 1 mg/kg", "result": 0.191, "unit": "µg/g"}, {"measurement": "plasma concentration", "setting": "[11]; 1 mg/kg", "result": 1.443, "unit": "µg/g"}, {"measurement": "LogBB", "setting": "[11]; 5 mg/kg", "result": "−0.649"}, {"measurement": "brain concentration", "setting": "[11]; 5 mg/kg", "result": 1.421, "unit": "µg/g"}, {"measurement": "plasma concentration", "setting": "[11]; 5 mg/kg", "result": 6.352, "unit": "µg/g"}, {"measurement": "LogBB", "setting": "[11]; 10 mg/kg", "result": "−0.311"}, {"measurement": "brain concentration", "setting": "[11]; 10 mg/kg", "result": 5.269, "unit": "µg/g"}, {"measurement": "plasma concentration", "setting": "[11]; 10 mg/kg", "result": 10.790, "unit": "µg/g"}, {"measurement": "LogBB", "setting": "[11]; 20 mg/kg", "result": "−0.276"}, {"measurement": "brain concentration", "setting": "[11]; 20 mg/kg", "result": 10.048, "unit": "µg/g"}, {"measurement": "plasma concentration", "setting": "[11]; 20 mg/kg", "result": 19.009, "unit": "µg/g"}, {"measurement": "concentration not toxic to the hERG channel", "setting": "[12]", "result": "> 10", "unit": "µM"}]}
